What was measured:
Experiment in all cases: relative viability (nuclei count vs DMSO), 5 days (fraction); higher = more cells survive
[1] = compound: C1=CC2=NC=CN=C2C=C1/C=C/3\C(=O)NC(=O)S3 + CC1(C)CCC(c2ccc(Cl)cc2)=C(CN2CCN(c3ccc(C(=O)NS(=O)(=O)c4ccc(N[C@H](CCN5CCOCC5)CSc5ccccc5)c(S(=O)(=O)C(F)(F)F)c4)cc3)CC2)C1 [Navitoclax] (partner 0.5 µM)
In short: (§1)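 Lung cancer cell lines, seeded in 1536-well plates, were treated the following day by pin tool with a single drug or with five library-drug doses (not always all listed) in √10 steps on top of a fixed anchor-drug dose. Cells were fixed and nuclei stained in one step after 5 days, and nuclei were counted. Relative viability is the nuclei count for treated wells divided by that for vehicle wells, reported as medians of duplicate plates.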

BGJ398 + Lapatinib = compound: CCN1CCN(c2ccc(Nc3cc(N(C)C(=O)Nc4c(Cl)c(OC)cc(OC)c4Cl)ncn3)cc2)CC1 [BGJ398] + CS(=O)(=O)CCNCc1ccc(-c2ccc3ncnc(Nc4ccc(OCc5cccc(F)c5)c(Cl)c4)c3c2)o1 [Lapatinib] (partner 2 µM)
In short: as §1

[2] = compound: C1=CC2=NC=CN=C2C=C1/C=C/3\C(=O)NC(=O)S3 + COc1cccc2cc(-c3nc([C@H]4CC[C@H](C(=O)O)CC4)n4ncnc(N)c34)[nH]c12 [OSI-027] (partner 0.5 µM)
In short: as §1

BGJ398 + Navitoclax = compound: CCN1CCN(c2ccc(Nc3cc(N(C)C(=O)Nc4c(Cl)c(OC)cc(OC)c4Cl)ncn3)cc2)CC1 [BGJ398] + CC1(C)CCC(c2ccc(Cl)cc2)=C(CN2CCN(c3ccc(C(=O)NS(=O)(=O)c4ccc(N[C@H](CCN5CCOCC5)CSc5ccccc5)c(S(=O)(=O)C(F)(F)F)c4)cc3)CC2)C1 [Navitoclax] (partner 0.5 µM)
In short: as §1

UMC-11
relative viability ([1]; first compound 0.02 µM): 0.296
relative viability ([1]; first compound 0.06325 µM): 0.397
relative viability ([1]; first compound 0.2 µM): 0.312
relative viability ([1]; first compound 0.6325 µM): 0.307
relative viability ([1]; first compound 2 µM): 0.302
relative viability (BGJ398 + Lapatinib; first compound 0.01 µM): 1.14
relative viability (BGJ398 + Lapatinib; first compound 0.03162 µM): 0.987
relative viability (BGJ398 + Lapatinib; first compound 0.1 µM): 0.991
relative viability (BGJ398 + Lapatinib; first compound 0.3162 µM): 0.924
relative viability (BGJ398 + Lapatinib; first compound 1 µM): 0.736
relative viability ([2]; first compound 0.02 µM): 0.56
relative viability ([2]; first compound 0.06325 µM): 0.527
relative viability ([2]; first compound 0.2 µM): 0.552
relative viability ([2]; first compound 0.6325 µM): 0.475
relative viability ([2]; first compound 2 µM): 0.439
relative viability (BGJ398 + Navitoclax; first compound 0.01 µM): 0.343
relative viability (BGJ398 + Navitoclax; first compound 0.03162 µM): 0.336
relative viability (BGJ398 + Navitoclax; first compound 0.1 µM): 0.314
relative viability (BGJ398 + Navitoclax; first compound 0.3162 µM): 0.382
relative viability (BGJ398 + Navitoclax; first compound 1 µM): 0.307
